For data set [1], the species on record is Danio rerio. Kind of data set: Anticonvulsant activity in AB zebra fish larvae assessed as reduction in PTZ-induced convulsant behavior by measuring swimming distance at 0.7 uM pretreated for 6 hrs followed by PTZ-stimulation and measured every 5 mins for 1 hr. The data set is classed as functional, organism-based. Conditions: time 7.0 hrs.
Data set [2] in a line: Toxicity in AB zebra fish larvae assessed as mortality at >= 6.2 uM after 6 hrs relative to control. On the set-up: species or system Danio rerio. The conditions noted are these: zebrafish.
The nature of data set [3]: Neurotoxicity in AB zebra fish larvae at 1.5 uM after 6 hrs. The data set is classed as toxicity, Danio rerio. The conditions noted are these: zebrafish.
A short description of data set [4]: Toxicity in AB zebra fish larvae assessed as maximum tolerated concentration after 6 hrs. On the set-up: species or system Danio rerio. Conditions: zebrafish, read-out: MTC.
Data set [5] in a line: Ratio of MTC for toxicity in AB zebra fish larvae to lowest observed effect concentration for Anticonvulsant activity in AB zebra fish larvae assessed as reduction in PTZ-induced convulsant behavior. Set-up: species or system Danio rerio.
Data set [6] can be described thus: Neurotoxicity in AB zebra fish larvae assessed as decrease in total swimming distance at <= MTC after 6 hrs. The class given is toxicity, Danio rerio. Conditions: zebrafish.
The species entered for data set [7] is Danio rerio. Kind of data set: Anticonvulsant activity in AB zebra fish larvae assessed as reduction in PTZ-induced convulsant behavior by measuring lowest observed effect concentration pretreated for 6 hrs followed by PTZ-stimulation and measured every 5 mins for 1 hr. The class given is functional. Conditions: time 7 hrs.

The source made the active and inactive calls. No cut-off for these calls is given here.

Consider `CC(C)=CCC12CC(C(C)(C)O)OC1=C(O)C(=O)c1oc3c4c(cc(O)c3c(=O)c12)OC(C)(C)C=C4` (configuration not stated), for which the result in the data set listed under Danio rerio [1] was Active. Besides, in data set [2], the mortality (as a rule, the percentage killed) at 6 h worked out at 100%. For the same compound, the Activity entry is “Toxic” in data set [3], “Non-Toxic” in data set [6] and 0.7 µM in the data set filed under Danio rerio [7]. For the same compound, in data set [4], the MNTC at 6 h came to 700 nM. The Ratio in data set [5] amounted to 1.
